Data: BigSolDB 2.1

O=C(O)COc1ccc(Cl)cc1Cl
solubility (mole fraction)
Details | in tetrachloromethane | in toluene
294.15 K | – | 0.00118
298.65 K | – | 0.00178
303.15 K | – | 0.00264
303.65 K | 4.99e-05 | –
308.45 K | – | 0.00399
310.65 K | 0.000131 | –
313.25 K | – | 0.00547
313.55 K | 0.000193 | –
318.75 K | 0.000414 | 0.00821
323.05 K | 0.00074 | –
323.15 K | – | 0.0109
328.25 K | 0.00146 | –
328.85 K | – | 0.015
332.95 K | 0.00259 | –
335.35 K | – | 0.0207
338.05 K | 0.00497 | 0.0235
